Assay results as given in PubChem BioAssay (NCI).
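Protocol summary: plate cells (96-well), add compound at 5 concentrations, incubate 48 h, interpolate endpoints linearly. At the TGI there is no net growth.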

Legend:
Assay in all cases: DTP human tumour cell line panel, 48 h
786-0 renal = test system: 786-0 renal
A498 renal = test system: A498 renal
A549 NSCLC = test system: A549 NSCLC
ACHN renal = test system: ACHN renal
BT-549 breast = test system: BT-549 breast
CAKI-1 renal = test system: CAKI-1 renal
CCRF-CEM leukemia = test system: CCRF-CEM leukemia
COLO 205 colon = test system: COLO 205 colon
DU-145 prostate = test system: DU-145 prostate
EKVX NSCLC = test system: EKVX NSCLC
HCC-2998 colon = test system: HCC-2998 colon
HCT-116 colon = test system: HCT-116 colon
HCT-15 colon = test system: HCT-15 colon
HOP-62 NSCLC = test system: HOP-62 NSCLC
HOP-92 NSCLC = test system: HOP-92 NSCLC
HS 578T breast = test system: HS 578T breast
HT29 colon = test system: HT29 colon
IGROV1 ovarian = test system: IGROV1 ovarian
K-562 leukemia = test system: K-562 leukemia
M14 melanoma = test system: M14 melanoma
MALME-3M melanoma = test system: MALME-3M melanoma
MCF7 breast = test system: MCF7 breast
MDA-MB-231 breast = test system: MDA-MB-231 breast
MDA-MB-435 = test system: MDA-MB-435
MDA-N = test system: MDA-N
MOLT-4 leukemia = test system: MOLT-4 leukemia
NCI-H226 lung = test system: NCI-H226 lung
NCI-H23 lung = test system: NCI-H23 lung
NCI-H522 lung = test system: NCI-H522 lung
NCI/ADR-RES ovarian = test system: NCI/ADR-RES ovarian
OVCAR-3 ovarian = test system: OVCAR-3 ovarian
OVCAR-4 ovarian = test system: OVCAR-4 ovarian
OVCAR-8 ovarian = test system: OVCAR-8 ovarian
PC-3 prostate = test system: PC-3 prostate
RPMI-8226 leukemia = test system: RPMI-8226 leukemia
RXF 393 renal = test system: RXF 393 renal
SF-268 CNS = test system: SF-268 CNS
SF-295 CNS = test system: SF-295 CNS
SF-539 CNS = test system: SF-539 CNS
SK-MEL-28 melanoma = test system: SK-MEL-28 melanoma
SK-MEL-5 melanoma = test system: SK-MEL-5 melanoma
SK-OV-3 ovarian = test system: SK-OV-3 ovarian
SN12C renal = test system: SN12C renal
SNB-19 CNS = test system: SNB-19 CNS
SNB-75 CNS = test system: SNB-75 CNS
SW-620 colon = test system: SW-620 colon
T-47D breast = test system: T-47D breast
U251 CNS = test system: U251 CNS
UACC-257 melanoma = test system: UACC-257 melanoma
UO-31 renal = test system: UO-31 renal
HL-60(TB) leukemia = test system: HL-60(TB) leukemia
KM12 colon = test system: KM12 colon
LOX IMVI melanoma = test system: LOX IMVI melanoma
NCI-H460 lung = test system: NCI-H460 lung
OVCAR-5 ovarian = test system: OVCAR-5 ovarian
SR leukemia = test system: SR leukemia
TK-10 renal = test system: TK-10 renal
UACC-62 melanoma = test system: UACC-62 melanoma

CC(C)(Br)C(Br)CCC1(C2CO2)CO1 (centres undefined)
TGI (786-0 renal): > 5 µM
TGI (A498 renal): > 5 µM
TGI (A549 NSCLC): > 5 µM
TGI (ACHN renal): > 5 µM
TGI (BT-549 breast): > 5 µM
TGI (CAKI-1 renal): > 5 µM
TGI (CCRF-CEM leukemia): > 5 µM
TGI (COLO 205 colon): > 5 µM
TGI (DU-145 prostate): > 5 µM
TGI (EKVX NSCLC): > 5 µM
TGI (HCC-2998 colon): > 5 µM
TGI (HCT-116 colon): > 5 µM
TGI (HCT-15 colon): > 5 µM
TGI (HOP-62 NSCLC): > 5 µM
TGI (HOP-92 NSCLC): > 5 µM
TGI (HS 578T breast): > 5 µM
TGI (HT29 colon): > 5 µM
TGI (IGROV1 ovarian): > 5 µM
TGI (K-562 leukemia): > 5 µM
TGI (M14 melanoma): > 5 µM
TGI (MALME-3M melanoma): > 5 µM
TGI (MCF7 breast): > 5 µM
TGI (MDA-MB-231 breast): > 5 µM
TGI (MDA-MB-435): > 5 µM
TGI (MDA-N): > 5 µM
TGI (MOLT-4 leukemia): > 5 µM
TGI (NCI-H226 lung): > 5 µM
TGI (NCI-H23 lung): > 5 µM
TGI (NCI-H522 lung): > 5 µM
TGI (NCI/ADR-RES ovarian): > 5 µM
TGI (OVCAR-3 ovarian): > 5 µM
TGI (OVCAR-4 ovarian): > 5 µM
TGI (OVCAR-8 ovarian): > 5 µM
TGI (PC-3 prostate): > 5 µM
TGI (RPMI-8226 leukemia): > 5 µM
TGI (RXF 393 renal): > 5 µM
TGI (SF-268 CNS): > 5 µM
TGI (SF-295 CNS): > 5 µM
TGI (SF-539 CNS): > 5 µM
TGI (SK-MEL-28 melanoma): > 5 µM
TGI (SK-MEL-5 melanoma): > 5 µM
TGI (SK-OV-3 ovarian): > 5 µM
TGI (SN12C renal): > 5 µM
TGI (SNB-19 CNS): > 5 µM
TGI (SNB-75 CNS): > 5 µM
TGI (SW-620 colon): > 5 µM
TGI (T-47D breast): > 5 µM
TGI (U251 CNS): > 5 µM
TGI (UACC-257 melanoma): > 5 µM
TGI (UO-31 renal): > 5 µM

COc1cccc2c1OC(c1ccc(Cl)cc1)C([N+](=O)[O-])=C2 (centres undefined)
TGI (786-0 renal): 3.63 µM
TGI (A549 NSCLC): 22.5 µM
TGI (ACHN renal): 3.28 µM
TGI (BT-549 breast): 3.38 µM
TGI (CAKI-1 renal): 10.7 µM
TGI (CCRF-CEM leukemia): 4 µM
TGI (COLO 205 colon): 5.74 µM
TGI (DU-145 prostate): 13.2 µM
TGI (EKVX NSCLC): 24.2 µM
TGI (HCT-116 colon): 2.67 µM
TGI (HCT-15 colon): 10.8 µM
TGI (HL-60(TB) leukemia): > 100 µM
TGI (HOP-62 NSCLC): 4.89 µM
TGI (HS 578T breast): 13.4 µM
TGI (HT29 colon): 3.21 µM
TGI (IGROV1 ovarian): 9.19 µM
TGI (K-562 leukemia): 24.3 µM
TGI (KM12 colon): 4.84 µM
TGI (LOX IMVI melanoma): 2.71 µM
TGI (M14 melanoma): 2.57 µM
TGI (MALME-3M melanoma): 5.32 µM
TGI (MDA-MB-231 breast): 13.8 µM
TGI (MDA-MB-435): 8.68 µM
TGI (MDA-N): 3.45 µM
TGI (MOLT-4 leukemia): 8.58 µM
TGI (NCI-H23 lung): 21.2 µM
TGI (NCI-H460 lung): 4.92 µM
TGI (NCI-H522 lung): 3.23 µM
TGI (NCI/ADR-RES ovarian): 39.5 µM
TGI (OVCAR-3 ovarian): 7.08 µM
TGI (OVCAR-4 ovarian): 6.2 µM
TGI (OVCAR-5 ovarian): 7.84 µM
TGI (OVCAR-8 ovarian): 10.2 µM
TGI (PC-3 prostate): 5.3 µM
TGI (RXF 393 renal): 3.32 µM
TGI (SF-268 CNS): 13.9 µM
TGI (SF-295 CNS): 13.4 µM
TGI (SK-MEL-28 melanoma): 7.19 µM
TGI (SK-MEL-5 melanoma): 2.95 µM
TGI (SK-OV-3 ovarian): 13.6 µM
TGI (SN12C renal): 8.41 µM
TGI (SNB-19 CNS): 17 µM
TGI (SR leukemia): > 100 µM
TGI (T-47D breast): 9.13 µM
TGI (TK-10 renal): 16 µM
TGI (U251 CNS): 5.77 µM
TGI (UACC-257 melanoma): 8.39 µM
TGI (UACC-62 melanoma): 10.4 µM
TGI (UO-31 renal): 3.44 µM
